# Measured values published in PMC12582325 (Proceedings of the National Academy of Sciences of the …, 2025).
# “And” between values parts separate entries of the source, which are not always exact repeats. Equal values may be shown once. Read-outs that look alike come from different tables or passages of the source. Where a SMILES comes first, the peptide text is derived from it.
# Experiments:
# [1] = system: Fg.Ste2; type: cell-based, Fusarium graminearum
# [2] = system: Fo.Ste2; type: cell-based, Fusarium oxysporum
# [3] = system: Bc.Ste2; type: cell-based, Botrytis cinerea
# [4] = biological target: T1, Sc Ste2 (Saccharomyces cerevisiae, UniProt D6VTK4); type: cell-based
# T1 construct: The native Sc system and an empty construct were added as positive and negative controls; endogenous in cells; host or cells: Saccharomyces cerevisiae wild-type control strains GEN18 (MATa) and GEN27 (MATα)
# T1 sequence (D6VTK4 1-431): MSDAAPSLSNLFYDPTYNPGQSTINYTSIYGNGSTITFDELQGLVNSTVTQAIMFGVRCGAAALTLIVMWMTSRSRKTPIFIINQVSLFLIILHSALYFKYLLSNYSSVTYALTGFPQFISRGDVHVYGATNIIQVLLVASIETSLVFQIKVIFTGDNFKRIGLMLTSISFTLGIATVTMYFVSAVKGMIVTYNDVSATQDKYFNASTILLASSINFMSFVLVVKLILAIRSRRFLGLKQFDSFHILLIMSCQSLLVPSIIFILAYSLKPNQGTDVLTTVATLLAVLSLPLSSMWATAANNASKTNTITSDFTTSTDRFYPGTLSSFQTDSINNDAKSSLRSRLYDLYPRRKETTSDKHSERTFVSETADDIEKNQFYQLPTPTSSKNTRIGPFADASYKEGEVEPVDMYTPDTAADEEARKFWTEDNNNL
# [5] = system: Ca.Ste2; type: cell-based, Candida albicans
# [6] = system: Fg.Ste2; type: cell-based, Fusarium graminearum; settings: for Diploid frequency (%): 20 h coculture; for diploid frequency (%) / average (diploid colonies): GPCR strain GEN37 HIS; for average (diploid colonies): dilution 500, mean of Rep1-3
# [7] = system: Hj Ste2 GPCR (Hj.Hpr2); type: cell-based, Hypocrea jecorina
# [8] = system: Bc.Ste2; type: cell-based, Botrytis cinerea; remark: listed apart in the source
# [9] = system: Nc Ste2 GPCR; type: cell-based, Neurospora crassa
# [10] = system: empty (strain lacking a GPCR); type: cell-based, Saccharomyces cerevisiae; settings: Fig. 1D mating matrix; pheromone secreted by MATa strain, MATα strain lacking a GPCR (empty); deep well plate, 20 h coculture
# [11] = system: Bb.Ste2; type: cell-based, Beauveria bassiana; settings: YPL1 library cocultured with Bb.Ste2 strain GEN88, 20 h, 2 d diploid enrichment, NextSeq 500
# [12] = system: Fo.Ste2; type: cell-based, Fusarium oxysporum; remark: listed apart in the source
# [13] = system: Fg.Ste2; settings: for barcode qPCR of diploids, Fg.Ste2 x pheromone strain: consortium, individual replicates (n=3), listed as Fo.Pheromone
# [14] = system: Bb.Ste2; type: cell-based, Beauveria bassiana
# [15] = system: Hj.Hpr2; type: cell-based, Hypocrea jecorina
# [16] = system: no_GPCR (negative control lacking a GPCR); type: cell-based, Saccharomyces cerevisiae; settings: for barcode qPCR of diploids, no_GPCR x pheromone strain: consortium, individual replicates (n=3), listed as Fo.Pheromone
# [17] = system: B. bassiana; type: cell-based, Beauveria bassiana
# [18] = system: F. oxysporum germ tubes; settings: gradient of 400 μM pheromone against the solvent (50% methanol); 13 h; water-agar; three biological replicates; Fig. 5A
# Method: For the B. bassiana and F. oxysporum chemotropism assay and plant infection assays the pheromones were dissolved in 50% (v/v) MeOH to reach a concentration of 4,000 μM.
# Fungal chemotropism was conducted as previously described ([11]). For each compound or combination of compounds tested, 300 hyphal tips were scored. All experiments were performed in three biological replicates.
# [19] = system: F. oxysporum in tomato roots; experiment: Quantification of fungal DNA in tomato roots (qPCR); settings: 3 d after inoculation, washed roots; compared to the untreated infected roots; three biological replicates
smiles,measurement,setting,value
C[C@@H](O)[C@H](NC(=O)[C@H](CS)NC(=O)[C@@H](N)Cc1c[nH]c2ccccc12)C(=O)N[C@@H](Cc1c[nH]c2ccccc12)C(=O)N[C@@H](CCCNC(=N)N)C(=O)NCC(=O)N[C@@H](CCC(N)=O)C(=O)N1CCC[C@H]1C(=O)N[C@@H](CS)C(=O)N[C@@H](Cc1c[nH]c2ccccc12)C(=O)O [Fo] (H-WCTWRGQPCW-OH; N-terminus assumed),Fold change yEGFP,"[1]; Fg.Ste2 biosensor CPK366, 10 μM synthetic alpha pheromone, normalized to yEGFP background (receptor without pheromone), four biological replicates, Fig. 1E",187
same,"Activation of Fg.Ste2 biosensor, in words",[1]; chemically synthesized pheromone,higher EC50 values
same,Fold change yEGFP,[2],236
same,Hillslope,[2],2.574
same,logEC50,[2],-7.534
same,"Sup.Fig.3B Fo.Ste2 biosensor response, group mean",[2]; 0.5 μM,1195000
same,Fold change yEGFP,[3],1
same,Hillslope,[3],0.5934
same,logEC50,[3],-8.991
same,"Sup.Fig.3A Bc.Ste2 biosensor response, group mean",[3]; 10 μM,1.713
same,Diploid frequency (%),[4],0.0%
same,Diploid frequency (%),[5],0.0%
same,Diploid frequency (%),"[6]; Fig. 1D mating matrix, pheromone secreted by MATa strain, GPCR in MATα strain, deep well plate, three technical plating replicates",0.5%
same,Diploid frequency (%),"[6]; Fig. 1F validation in culture tubes, secreted pheromone, three biological and three technical replicates",8.8%
same,diploid frequency (%),[6]; co-culture replicate 1,1.34%
same,average (diploid colonies),[6]; co-culture replicate 1,5.67
same,diploid frequency (%),[6]; co-culture replicate 2,1.11%
same,average (diploid colonies),[6]; co-culture replicate 2,4.67
same,diploid frequency (%),[6]; co-culture replicate 3,0.95%
same,average (diploid colonies),[6]; co-culture replicate 3,4
same,Diploid frequency (%),[7],0.0%
same,Diploid frequency (%),[8],0.1% and 0.3%
same,average (diploid colonies),[8],0.67 and 1
same,diploid frequency (%),[8],0.19% and 0.28%
same,Diploid frequency (%),[9],0.0%
same,Diploid frequency (%),[10],0.1%
same,"Enrichment after mating, reads per million minus library before coculture",[11],"> 340,000 RPM"
same,"barcode qPCR of diploids, Fo.Ste2 x pheromone strain",[12],0.439
same,"Sup.Fig.7B - Fo, group mean",[12]; pH=6,1.65
same,"Sup.Fig.7B - Fo, group mean",[12]; pH=7,0.8933
same,"qPCR, Fo + Fo",[12]; ph=6,0.386 and 0.413 and 0.467
same,"qPCR, Fo + Fo",[12]; ph=7,0.660 and 0.439 and 0.352
same,"barcode qPCR of diploids, Fg.Ste2 x pheromone strain",[13]; SC-AS/Urea,0.002 and 0.005 and 0.018
same,"barcode qPCR of diploids, Fg.Ste2 x pheromone strain",[13]; SC,0.005 (2×) and 0.013
same,diploid barcode qPCR signal relative to control (2^-dCt),"[13]; section A4, (GPCR strain) Fg, mean of Bio1-3",0.118
same,diploid barcode qPCR signal relative to control (2^-dCt),"[13]; section A4, column Fg, replicate Bio1",0.012
same,diploid barcode qPCR signal relative to control (2^-dCt),"[13]; section A4, column Fg, replicate Bio2",0.1
same,diploid barcode qPCR signal relative to control (2^-dCt),"[13]; section A4, column Fg, replicate Bio3",0.242
same,diploid barcode qPCR signal relative to control (2^-dCt),"[13]; section Cm, (GPCR strain) Fg, mean of Bio1-3",0.038
same,diploid barcode qPCR signal relative to control (2^-dCt),"[13]; section Cm, column Fg, replicate Bio1",0.014
same,diploid barcode qPCR signal relative to control (2^-dCt),"[13]; section Cm, column Fg, replicate Bio2",0.066
same,diploid barcode qPCR signal relative to control (2^-dCt),"[13]; section Cm, column Fg, replicate Bio3",0.033
same,diploid barcode qPCR signal relative to control (2^-dCt),"[13]; section SC, (GPCR strain) Fg, mean of Bio1-3",0.0075
same,diploid barcode qPCR signal relative to control (2^-dCt),"[13]; section SC, column Fg, replicate Bio1",0.005
same,diploid barcode qPCR signal relative to control (2^-dCt),"[13]; section SC, column Fg, replicate Bio2",0.005
same,diploid barcode qPCR signal relative to control (2^-dCt),"[13]; section SC, column Fg, replicate Bio3",0.013
same,diploid barcode qPCR signal relative to control (2^-dCt),"[13]; section Scramble, (GPCR strain) Fg, mean of Bio1-3",0.0276
same,diploid barcode qPCR signal relative to control (2^-dCt),"[13]; section Scramble, column Fg, replicate Bio1",0.025
same,diploid barcode qPCR signal relative to control (2^-dCt),"[13]; section Scramble, column Fg, replicate Bio2",0.022
same,diploid barcode qPCR signal relative to control (2^-dCt),"[13]; section Scramble, column Fg, replicate Bio3",0.036
same,diploid barcode qPCR signal relative to control (2^-dCt),[14],0
same,"barcode qPCR of diploids, Hj.HPR2 x pheromone strain",[15],0
same,diploid barcode qPCR signal relative to control (2^-dCt),[15],0
same,"barcode qPCR of diploids, no_GPCR x pheromone strain",[16]; SC-AS/Urea,0 and 0.004 and 0.005
same,"barcode qPCR of diploids, no_GPCR x pheromone strain",[16]; SC,0 (2×) and 0.007
same,diploid barcode qPCR signal relative to control (2^-dCt),"[16]; section A4, GPCR strain not given, mean of Bio1-3",0.036
same,diploid barcode qPCR signal relative to control (2^-dCt),"[16]; section A4, column EMPTY, replicate Bio1",0.014
same,diploid barcode qPCR signal relative to control (2^-dCt),"[16]; section A4, column EMPTY, replicate Bio2",0.039
same,diploid barcode qPCR signal relative to control (2^-dCt),"[16]; section A4, column EMPTY, replicate Bio3",0.054
same,diploid barcode qPCR signal relative to control (2^-dCt),"[16]; section Cm, GPCR strain not given, mean of Bio1-3",0.002
same,diploid barcode qPCR signal relative to control (2^-dCt),"[16]; section Cm, column EMPTY, replicate Bio1",0.005
same,diploid barcode qPCR signal relative to control (2^-dCt),"[16]; section Cm, column EMPTY, replicate Bio2",0
same,diploid barcode qPCR signal relative to control (2^-dCt),"[16]; section Cm, column EMPTY, replicate Bio3",0
same,diploid barcode qPCR signal relative to control (2^-dCt),"[16]; section SC, GPCR strain not given, mean of Bio1-3",0.0024
same,diploid barcode qPCR signal relative to control (2^-dCt),"[16]; section SC, column EMPTY, replicate Bio1",0
same,diploid barcode qPCR signal relative to control (2^-dCt),"[16]; section SC, column EMPTY, replicate Bio2",0
same,diploid barcode qPCR signal relative to control (2^-dCt),"[16]; section SC, column EMPTY, replicate Bio3",0.007
same,diploid barcode qPCR signal relative to control (2^-dCt),"[16]; section Scramble, GPCR strain not given, mean of Bio1-3",0.0071
same,diploid barcode qPCR signal relative to control (2^-dCt),"[16]; section Scramble, column EMPTY, replicate Bio1",0
same,diploid barcode qPCR signal relative to control (2^-dCt),"[16]; section Scramble, column EMPTY, replicate Bio2",0.015
same,diploid barcode qPCR signal relative to control (2^-dCt),"[16]; section Scramble, column EMPTY, replicate Bio3",0.006
same,"Chemotropism of spores, group mean",[17],11.13
same,chem. Index,[17],14.29 and 11.03 and 8.06
same,Chemotropic response in Bb germ tubes,[17]; 20 hours,significant chemotropic response
same,Chemotropic response in F. oxysporum germ tubes,[18],significant chemotropic response
same,"Fungal biomass in inoculated tomato roots (qPCR of Fol4287 actin gene, 2^−ΔΔCt, normalized to tomato gapdh)",[19],significant reduction in fungal biomass
